Like-named read-outs stand apart in the source and are kept apart here.
Legend:
[1] = test system: Thyroid hormone receptor alpha, THRA (h); assay: IPP THRA coactivator recruitment (agonist); format: biochemical, human
[2] = target: Mu-type opioid receptor, OPRM1 (h) (Homo sapiens, UniProt P35372); settings: control DAMGO
[3] = target: Cannabinoid receptor 2, CNR2 (h) (Homo sapiens, UniProt P34972); format: binding; settings: IPP screening at 10 uM; control WIN 55212-2
[4] = target: T1, Monoamine oxidase type A, MAOA (r) (Rattus norvegicus, UniProt P21396); assay: IPP MAOA binding (antagonist radioligand); settings: IPP screening at 10 uM; control clorgyline
T1 sequence (P21396 1-526): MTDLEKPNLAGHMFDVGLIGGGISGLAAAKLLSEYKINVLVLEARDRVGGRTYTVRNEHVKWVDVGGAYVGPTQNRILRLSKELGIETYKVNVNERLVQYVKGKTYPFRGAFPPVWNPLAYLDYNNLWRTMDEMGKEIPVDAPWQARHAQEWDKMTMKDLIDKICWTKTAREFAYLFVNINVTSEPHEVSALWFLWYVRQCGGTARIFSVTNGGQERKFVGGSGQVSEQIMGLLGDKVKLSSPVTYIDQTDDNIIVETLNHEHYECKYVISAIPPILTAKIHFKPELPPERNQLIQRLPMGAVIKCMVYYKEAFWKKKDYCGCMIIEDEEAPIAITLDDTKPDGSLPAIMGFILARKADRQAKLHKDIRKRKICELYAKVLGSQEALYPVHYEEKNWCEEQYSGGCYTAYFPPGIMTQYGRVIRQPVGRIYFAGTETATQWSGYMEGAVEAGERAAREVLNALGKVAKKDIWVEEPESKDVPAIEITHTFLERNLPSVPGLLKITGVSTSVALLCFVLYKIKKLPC

[5] = target: 5-hydroxytryptamine receptor 2A, HTR2A (h) (Homo sapiens, UniProt P28223); format: binding
[6] = target: Carbonic anhydrase II, CA2 (h) (Homo sapiens, UniProt P00918); assay: IPP CA2 enzymatic activity; format: biochemical; settings: 10 uM; control acetazolamide
HepG2 cells = assay: Cell stress panel (CSP), 24 h, 8 concentrations, BIFROST global PoD; format: cell-based
Description: Compounds were tested using the previously developed cell stress panel ([Hatherell et al. 2020]) and the expanded biomarker panel outlined in Middleton et al. HepG2 cells were treated with all compounds for 24 h across 8 concentrations prior to biomarker analysis. The same plate layout and number of replicates (3 biological and 2 technical) were used as previously for each assay within the panel.

[7] = target: Prostaglandin G/H synthase 1, PTGS1(h) (Homo sapiens, UniProt P23219); assay: IPP PTGS1 enzymatic activity; format: biochemical; settings: control Diclofenac
[8] = test system: Gamma-aminobutyric acid receptor subunit alpha-1 BZD site, GABRA1A (r); format: binding, rat
[9] = target: Angiotensin-converting enzyme 2, ACE2 (h) (Homo sapiens, UniProt Q9BYF1); assay: IPP ACE2 enzymatic activity; format: biochemical; settings: 10 uM; control captopril
[10] = target: T2, Prostaglandin G/H synthase 2, PTGS2 (h) (Homo sapiens, UniProt P35354); assay: IPP PTGS2 enzymatic activity; format: biochemical; settings: control NS398
T2 sequence (P35354 18-604): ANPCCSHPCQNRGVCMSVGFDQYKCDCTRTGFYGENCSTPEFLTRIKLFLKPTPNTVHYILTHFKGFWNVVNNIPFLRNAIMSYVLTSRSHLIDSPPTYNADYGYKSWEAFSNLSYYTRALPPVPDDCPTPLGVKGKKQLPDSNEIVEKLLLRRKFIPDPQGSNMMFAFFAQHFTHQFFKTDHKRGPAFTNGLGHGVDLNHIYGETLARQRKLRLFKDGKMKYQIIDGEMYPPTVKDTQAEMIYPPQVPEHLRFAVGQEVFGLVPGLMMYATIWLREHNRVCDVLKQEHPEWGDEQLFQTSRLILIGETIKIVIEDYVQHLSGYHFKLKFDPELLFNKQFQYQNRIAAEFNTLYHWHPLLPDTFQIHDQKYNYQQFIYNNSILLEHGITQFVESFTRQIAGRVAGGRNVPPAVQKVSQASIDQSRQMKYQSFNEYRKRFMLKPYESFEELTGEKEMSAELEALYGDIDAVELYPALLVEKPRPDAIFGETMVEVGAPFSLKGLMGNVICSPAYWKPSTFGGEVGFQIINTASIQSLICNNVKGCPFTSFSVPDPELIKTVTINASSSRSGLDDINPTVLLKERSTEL

[11] = target: T3, Adenosine receptor A2a, ADORA2A (h) (Homo sapiens, UniProt P29274); assay: IPP ADORA2A binding (agonist radioligand); settings: control NECA
T3 construct: purchased Eurofins Cerep (SafetyScreen44-based IPP panel)

[12] = target: Sodium-dependent dopamine transporter, SLC6A3 (h) (Homo sapiens, UniProt Q01959); settings: control BTCP
[13] = target: Voltage-dependent L-type Ca2+ channel (dihydropyridine site), CACNA1C (r) (Rattus norvegicus, UniProt P22002); format: binding
[14] = target: Potassium voltage-gated channel subfamily H member 2 hERG, KCNH2 (h) (Homo sapiens, UniProt Q12809)
[15] = IPP screening at 10 uM, control (±)DOI
[16] = IPP screening at 10 uM, control diazepam

T3 sequence (P29274 whole entry): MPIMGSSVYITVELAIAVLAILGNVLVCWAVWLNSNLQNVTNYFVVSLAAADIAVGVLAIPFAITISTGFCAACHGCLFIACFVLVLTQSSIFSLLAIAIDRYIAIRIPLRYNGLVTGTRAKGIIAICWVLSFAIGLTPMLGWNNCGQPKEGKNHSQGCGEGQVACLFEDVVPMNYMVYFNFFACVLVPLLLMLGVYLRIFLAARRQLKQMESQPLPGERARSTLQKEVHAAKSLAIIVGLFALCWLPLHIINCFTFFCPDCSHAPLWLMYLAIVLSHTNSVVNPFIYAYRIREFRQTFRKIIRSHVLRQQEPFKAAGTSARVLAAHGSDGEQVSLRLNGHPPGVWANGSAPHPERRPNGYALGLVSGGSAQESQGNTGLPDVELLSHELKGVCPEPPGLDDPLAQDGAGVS
Sequence of Angiotensin-converting enzyme 2, ACE2 (h) (Q9BYF1 18-805): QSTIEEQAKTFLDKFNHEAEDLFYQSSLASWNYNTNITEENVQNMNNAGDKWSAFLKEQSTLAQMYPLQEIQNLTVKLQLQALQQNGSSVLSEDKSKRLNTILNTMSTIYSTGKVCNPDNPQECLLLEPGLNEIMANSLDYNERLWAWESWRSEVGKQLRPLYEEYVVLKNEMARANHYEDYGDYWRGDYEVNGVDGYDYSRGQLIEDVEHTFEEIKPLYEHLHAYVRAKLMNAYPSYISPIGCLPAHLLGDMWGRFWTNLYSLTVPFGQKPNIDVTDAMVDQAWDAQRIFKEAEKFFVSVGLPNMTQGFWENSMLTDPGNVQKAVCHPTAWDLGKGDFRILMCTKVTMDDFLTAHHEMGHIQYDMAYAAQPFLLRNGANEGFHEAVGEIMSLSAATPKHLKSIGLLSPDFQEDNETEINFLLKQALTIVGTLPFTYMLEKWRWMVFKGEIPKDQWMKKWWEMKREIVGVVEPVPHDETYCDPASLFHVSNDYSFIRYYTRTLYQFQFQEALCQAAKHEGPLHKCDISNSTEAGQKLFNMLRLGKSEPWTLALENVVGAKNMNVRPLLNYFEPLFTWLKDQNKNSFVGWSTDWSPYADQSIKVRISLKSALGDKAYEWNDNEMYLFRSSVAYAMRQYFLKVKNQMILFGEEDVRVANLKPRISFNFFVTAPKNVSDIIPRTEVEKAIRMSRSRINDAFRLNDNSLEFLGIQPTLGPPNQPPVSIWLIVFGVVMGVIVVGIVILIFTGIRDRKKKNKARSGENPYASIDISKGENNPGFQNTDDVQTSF
Sequence of 5-hydroxytryptamine receptor 2A, HTR2A (h) (P28223 whole entry): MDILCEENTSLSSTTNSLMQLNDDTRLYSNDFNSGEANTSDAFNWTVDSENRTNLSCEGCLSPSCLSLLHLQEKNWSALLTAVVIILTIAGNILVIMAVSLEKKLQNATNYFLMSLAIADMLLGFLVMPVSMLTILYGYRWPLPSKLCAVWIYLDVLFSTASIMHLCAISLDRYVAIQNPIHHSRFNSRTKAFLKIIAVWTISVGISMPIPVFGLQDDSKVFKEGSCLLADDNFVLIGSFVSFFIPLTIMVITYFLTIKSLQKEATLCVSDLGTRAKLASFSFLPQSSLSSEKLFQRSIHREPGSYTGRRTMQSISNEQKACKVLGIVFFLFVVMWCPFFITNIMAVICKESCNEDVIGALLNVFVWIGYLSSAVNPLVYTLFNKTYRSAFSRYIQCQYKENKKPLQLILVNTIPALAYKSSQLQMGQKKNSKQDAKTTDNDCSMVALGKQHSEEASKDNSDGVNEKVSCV
Sequence of Potassium voltage-gated channel subfamily H member 2 hERG, KCNH2 (h) (Q12809 whole entry): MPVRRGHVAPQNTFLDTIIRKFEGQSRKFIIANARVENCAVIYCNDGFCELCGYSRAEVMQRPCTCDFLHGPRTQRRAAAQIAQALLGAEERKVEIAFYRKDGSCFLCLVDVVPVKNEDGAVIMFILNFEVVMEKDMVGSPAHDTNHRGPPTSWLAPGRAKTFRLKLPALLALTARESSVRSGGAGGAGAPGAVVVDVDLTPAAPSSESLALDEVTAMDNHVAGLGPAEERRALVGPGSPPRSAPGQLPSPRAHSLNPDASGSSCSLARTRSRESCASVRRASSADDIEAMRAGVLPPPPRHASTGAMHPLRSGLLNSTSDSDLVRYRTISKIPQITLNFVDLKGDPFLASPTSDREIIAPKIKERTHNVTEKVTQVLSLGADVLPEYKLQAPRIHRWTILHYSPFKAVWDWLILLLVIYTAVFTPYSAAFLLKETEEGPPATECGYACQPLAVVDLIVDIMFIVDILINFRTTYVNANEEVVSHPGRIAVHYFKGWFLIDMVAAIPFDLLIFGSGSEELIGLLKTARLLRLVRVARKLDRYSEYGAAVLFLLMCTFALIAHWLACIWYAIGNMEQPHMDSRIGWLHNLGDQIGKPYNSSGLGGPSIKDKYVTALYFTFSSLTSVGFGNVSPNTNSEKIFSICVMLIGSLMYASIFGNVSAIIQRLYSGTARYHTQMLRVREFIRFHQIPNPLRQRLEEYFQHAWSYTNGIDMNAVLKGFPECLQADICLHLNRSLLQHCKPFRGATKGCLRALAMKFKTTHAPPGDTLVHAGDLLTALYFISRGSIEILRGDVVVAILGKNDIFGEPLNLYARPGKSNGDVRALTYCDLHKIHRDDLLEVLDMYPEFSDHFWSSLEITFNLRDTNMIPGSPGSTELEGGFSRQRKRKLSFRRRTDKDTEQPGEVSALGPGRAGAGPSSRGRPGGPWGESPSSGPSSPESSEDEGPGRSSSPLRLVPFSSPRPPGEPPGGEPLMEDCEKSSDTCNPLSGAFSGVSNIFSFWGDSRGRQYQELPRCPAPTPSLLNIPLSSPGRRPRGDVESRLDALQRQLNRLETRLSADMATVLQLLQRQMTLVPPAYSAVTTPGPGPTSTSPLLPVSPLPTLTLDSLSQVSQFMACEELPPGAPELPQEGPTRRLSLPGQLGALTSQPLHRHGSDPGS
Sequence of Prostaglandin G/H synthase 1, PTGS1(h) (P23219 24-599): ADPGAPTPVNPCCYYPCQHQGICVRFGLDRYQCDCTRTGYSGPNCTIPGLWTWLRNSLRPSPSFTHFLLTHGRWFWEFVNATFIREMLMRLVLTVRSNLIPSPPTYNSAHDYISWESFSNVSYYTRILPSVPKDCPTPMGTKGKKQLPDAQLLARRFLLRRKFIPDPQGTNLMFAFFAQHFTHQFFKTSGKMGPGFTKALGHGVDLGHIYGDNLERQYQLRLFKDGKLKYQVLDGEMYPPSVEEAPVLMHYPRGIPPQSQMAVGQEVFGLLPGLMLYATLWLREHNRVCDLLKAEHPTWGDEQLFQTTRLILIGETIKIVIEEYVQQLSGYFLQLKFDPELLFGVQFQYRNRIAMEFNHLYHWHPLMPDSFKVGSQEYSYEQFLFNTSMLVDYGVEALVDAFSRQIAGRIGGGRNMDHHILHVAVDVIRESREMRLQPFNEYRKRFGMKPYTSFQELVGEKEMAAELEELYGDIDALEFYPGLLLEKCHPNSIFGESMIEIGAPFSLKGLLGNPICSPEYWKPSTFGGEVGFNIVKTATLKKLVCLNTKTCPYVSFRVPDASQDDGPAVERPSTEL
Sequence of Sodium-dependent dopamine transporter, SLC6A3 (h) (Q01959 whole entry): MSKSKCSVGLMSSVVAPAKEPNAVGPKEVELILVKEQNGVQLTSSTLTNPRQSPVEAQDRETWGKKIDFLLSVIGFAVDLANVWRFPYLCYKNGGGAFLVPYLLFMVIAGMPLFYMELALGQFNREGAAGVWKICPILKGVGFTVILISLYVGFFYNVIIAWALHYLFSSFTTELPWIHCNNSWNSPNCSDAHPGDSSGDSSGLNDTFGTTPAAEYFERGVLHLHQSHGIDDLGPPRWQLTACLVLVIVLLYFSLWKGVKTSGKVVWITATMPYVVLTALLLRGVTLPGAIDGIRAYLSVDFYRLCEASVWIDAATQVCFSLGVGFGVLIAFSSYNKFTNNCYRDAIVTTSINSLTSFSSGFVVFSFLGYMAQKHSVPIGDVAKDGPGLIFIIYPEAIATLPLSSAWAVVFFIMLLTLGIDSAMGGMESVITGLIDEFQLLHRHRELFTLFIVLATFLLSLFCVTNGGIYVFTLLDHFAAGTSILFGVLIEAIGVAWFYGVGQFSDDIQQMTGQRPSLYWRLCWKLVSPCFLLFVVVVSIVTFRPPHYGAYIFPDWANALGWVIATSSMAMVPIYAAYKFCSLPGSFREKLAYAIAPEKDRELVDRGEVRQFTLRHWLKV
Sequence of Cannabinoid receptor 2, CNR2 (h) (P34972 whole entry): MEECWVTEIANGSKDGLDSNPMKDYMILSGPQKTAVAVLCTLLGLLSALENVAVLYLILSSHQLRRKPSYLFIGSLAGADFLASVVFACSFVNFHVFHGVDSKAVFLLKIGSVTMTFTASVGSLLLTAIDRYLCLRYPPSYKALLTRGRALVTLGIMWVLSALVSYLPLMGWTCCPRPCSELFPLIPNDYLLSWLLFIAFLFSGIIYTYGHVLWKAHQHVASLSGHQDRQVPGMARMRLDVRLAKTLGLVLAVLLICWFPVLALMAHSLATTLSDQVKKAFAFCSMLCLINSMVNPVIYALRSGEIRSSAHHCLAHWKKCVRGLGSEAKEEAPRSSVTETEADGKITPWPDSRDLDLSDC
Sequence of Mu-type opioid receptor, OPRM1 (h) (P35372 whole entry): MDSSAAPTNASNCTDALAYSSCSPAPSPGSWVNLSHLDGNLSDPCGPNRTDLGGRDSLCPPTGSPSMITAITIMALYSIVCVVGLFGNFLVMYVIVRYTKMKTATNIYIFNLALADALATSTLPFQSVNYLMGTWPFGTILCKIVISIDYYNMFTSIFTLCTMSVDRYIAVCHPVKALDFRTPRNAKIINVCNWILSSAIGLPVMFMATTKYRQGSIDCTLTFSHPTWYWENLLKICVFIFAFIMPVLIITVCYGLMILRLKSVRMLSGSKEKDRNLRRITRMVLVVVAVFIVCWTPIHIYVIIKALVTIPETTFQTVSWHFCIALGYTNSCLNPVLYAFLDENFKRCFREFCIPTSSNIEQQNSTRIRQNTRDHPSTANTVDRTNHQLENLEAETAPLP

`CCOP(=S)(OCC)Oc1nc(Cl)c(Cl)cc1Cl` [Chlorpyrifos, O,O-Diethyl O-(3,5,6-trichloropyridin-2-yl) phosphorothioate] was tested, and the “IPP screening %, Coactivator recruitment” value ([1]; 10 uM, agonist, T3) was 2.0%, the Specific binding ([2]; IPP screening at 10 uM) was 29.9% and the Specific binding [3] was 16.0%. The Specific binding [4] was 3.1%, the Specific binding [5, 15] was 52.0% and the “IPP screening %, Enzymatic activity” value [6] was 5.1%. The “pod_cell_stress PoD” value (HepG2 cells; HepG2, cell stress panel PoD) was 0.578 µM, the Enzymatic activity ([7]; IPP screening at 10 uM) was 2.7% and the Specific binding [8, 16] was -11.0%. The “IPP screening %, Enzymatic activity” value [9] was -18.8%, the Enzymatic activity ([10]; IPP screening at 10 uM) was -4.1% and the Specific binding ([11]; IPP screening at 10 uM) was 15.6%. It also gave a Specific binding ([12]; IPP screening at 10 uM) of 34.7% and a Specific binding [13] of 47.7%.
For `CC(C)(C)c1ccc(CCOc2ncnc3ccccc23)cc1` [Fenazaquin, 4-[2-(4-tert-Butylphenyl)ethoxy]quinazoline], the “IPP screening %, Specific binding” value ([14]; 10 uM, [3H] Dofetilide, control Terfenadine) was 34.9%, the “IPP screening %, Coactivator recruitment” value ([1]; 10 uM, agonist, T3) was -1.0% and the Specific binding ([2]; IPP screening at 10 uM) was 16.1%. The Specific binding [3] was 26.8%, the Specific binding [4] was 8.2% and the Specific binding [5, 15] was 20.7%. The “IPP screening %, Enzymatic activity” value [6] was -0.2%, the “Bioactivity Observations: cell stress panel” value (HepG2 cells) was “Mechanism of action is insect-specific. Cell stress panel PoD is extrapolated beyond lowest concentration for leading biomarkers which suggests the concentration range tested was not low enough” and the “pod_cell_stress PoD” value (HepG2 cells; HepG2, cell stress panel PoD) was 0.0001306 µM. The Enzymatic activity ([7]; IPP screening at 10 uM) was -4.7%, the Specific binding [8, 16] was 7.6% and the “IPP screening %, Enzymatic activity” value [9] was -29.1%. The Enzymatic activity ([10]; IPP screening at 10 uM) was 0.8%, the Specific binding ([11]; IPP screening at 10 uM) was 47.1% and the Specific binding ([12]; IPP screening at 10 uM) was 65.2%. The Specific binding ([13]; IPP screening at 10 uM, control nitrendipine) was 19.8%.
With `CC1(C)O[C@@H]2[C@@H](CO[C@@]3(COS(N)(=O)=O)OC(C)(C)O[C@@H]23)O1` [Topiramate, [(3aS,5aR,8aR,8bS)-2,2,7,7-Tetramethyltetrahydro-2H,3aH,7H-bis[1,3]dioxolo[4,5-b:4',5'-d]pyran-3a-yl]methyl sulfamate (non-preferred name)] the “IPP screening %, Specific binding” value ([14]; human) was -13.1%, the “IPP screening %, Coactivator recruitment” value ([1]; 100 uM, agonist, T3, * denotes assay interference (2-Amino-6-chloro-4-nitrophenol, HC Red 3)) was 0.0% and the Specific binding ([2]; IPP screening at 100 uM) was 0.9%. The Specific binding ([5]; IPP screening at 100 uM; control ±)DOI) was 0.9%, the “pod_cell_stress PoD” value (HepG2 cells; HepG2, cell stress panel PoD) was 140.54 µM and the Enzymatic activity ([7]; IPP screening at 100 uM) was -1.5%. It also gave a Specific binding ([8]; IPP screening at 100 uM, control diazepam) of 9.7%, an Enzymatic activity ([10]; IPP screening at 100 uM) of 4.1% and a Specific binding ([11]; IPP screening at 100 uM) of 0.9%. For the same molecule, the Specific binding ([12]; IPP screening at 100 uM) was 0.1% and the Specific binding [13] was -33.5%.
“(4S,4aR,5S,5aR,6S,12aS)-4-(Dimethylamino)-3,5,6,10,12,12a-hexahydroxy-6-methyl-1,11-dioxo-1,4,4a,5,5a,6,11,12a-octahydrotetracene-2-carboxamide--hydrogen chloride (1/1) [Oxytetracycline hydrochloride]” was tested, and the “IPP screening %, Specific binding” value [14] was -10.2%, the “IPP screening %, Coactivator recruitment” value ([1]; 10 uM, agonist, T3) was 1.0% and the Specific binding ([2]; IPP screening at 10 uM) was 3.3%. For the same molecule, the Specific binding [3] was 4.9%, the Specific binding [4] was 0.8% and the “IPP screening %, Enzymatic activity” value [6] was 0.7%. For the same molecule, the Enzymatic activity ([7]; IPP screening at 10 uM) was -5.1%, the Specific binding [8, 16] was -0.4% and the “IPP screening %, Enzymatic activity” value [9] was -18.6%. It also gave an Enzymatic activity ([10]; IPP screening at 10 uM) of 14.5%, a Specific binding ([11]; IPP screening at 10 uM) of 7.5% and a Specific binding ([12]; IPP screening at 10 uM) of -0.9%. The Specific binding [13] was -32.1%.
In the case of “mixture of 2- and 3-tert-butyl-4-methoxyphenol [Butylated Hydroxyanisole]”, the “IPP screening %, Coactivator recruitment” value [1] is reported as 3.0%, the Specific binding ([2]; IPP screening at 10 uM) is reported as 7.1% and the Specific binding [3] is reported as -1.2%. For the same molecule, the Specific binding [4] was 6.7%, the Specific binding [5, 15] was 74.3% and the “IPP screening %, Enzymatic activity” value [6] was -0.4%. The “pod_cell_stress PoD” value (HepG2 cells) was 32.7666 µM, the Enzymatic activity ([7]; IPP screening at 10 uM) was 46.1% and the Specific binding [8] was -10.9%. For the same molecule, the “IPP screening %, Enzymatic activity” value [9] was -6.0%, the Enzymatic activity ([10]; IPP screening at 10 uM) was 62.4% and the Specific binding ([11]; IPP screening at 10 uM) was 2.8%. The Specific binding ([12]; IPP screening at 10 uM) was 20.6% and the Specific binding [13] was -14.2%.

Reference: paper PMC11879040, “Advancing systemic toxicity risk assessment: Evaluation of a NAM-based toolbox approach” (Toxicological Sciences, 2024)
